Data on 37 compounds can be found in article PMC12469161, “Anti-cancer compound screening identifies Aurora Kinase A inhibition as a means to favor CRISPR/Cas9 gene correction over knock-out” (PLOS One, 2025).

One assay concerns HEK293T-eGFP cells. Briefly: MTT cytotoxicity assay, 72 hours. The assay is classed as cell-based. Here is the method:
Cells were cultured for 16–24 hours under standard culturing conditions (5% CO2, 37 °C). […] All dose ranges were added in duplicate, followed by 72 hours of incubation. Cell viability was determined using a tetrazolium based metabolic activity assay. Briefly, 5 µL of 3-(4.5-dimethylthiazol-2-yl)-2,5-diphenyltetrazolium bromide (MTT) solution (5 mg/mL MTT in sterile PBS) was added per well, and the microplates were incubated for 4 hours at 37°C and 5% CO2 in a cell culture incubator. Next, 40 µL of 10% SDS/0.01 M HCl was added per well, and the microplates were incubated for 24–72 hours at 37°C and 5% CO2 in a cell culture incubator. Subsequently the absorbance at 570 nm and background absorbance at 720 nm were measured using the Spectramax i3x (Molecular Devices, San Jose, USA). Subsequently, the absorbance values at 720 nm were subtracted from the absorbance values at 570 nm, and the corresponding values were used to plot dose-response curves.
The data was normalized to the DMSO-treated cells (defined as 100% viability) and the empty controls (defined as 0% viability).
Background: Tetrazolium dyes change colour on reduction, which living cells bring about.

The subject of assay [1] is eGFP locus in HEK293T-eGFP cells (HDR vs NHEJ). Briefly: CRISPR gene-editing outcome (eGFP to BFP conversion, flow cytometry) with CRISPR-Cas9 LNP. The class given is cell-based. To be noted: for preferential activation of HDR over NHEJ in hit validation: narrowed dose range, triplicate, vs LNP only; for effect on the NHEJ and HDR outcomes: validated hits, Fig 2B; for effect on relative HDR in the compound screen: up to three dosages based on IC50, single measurements. Here is the method:
Compounds were assessed in three dosages to assess the effects on gene-editing efficacy. […] Cells were incubated with these compounds for 24 hours prior to LNP addition. LNP were added to all wells at a final concentration of 20 nM SpCas9 to achieve robust genome editing. After 24 hours of co-incubation, medium was refreshed and cells were transferred to a 48 well plate for further culturing. Six days after adding compounds, cells were processed for flow cytometric analysis of the gene knock-out and gene-correction efficiencies. Briefly, a ssDNA template was used carrying two nucleotide mutations to convert the eGFP sequence to that of a blue fluorescent protein (BFP), as well as mutating the PAM sequence to ensure robust HDR. The sgRNA spacer sequence was 5’-[…]-3’, and the HDR template sequence was 5’-[…]-3’.
Flow cytometry using the BD FACS Canto II (Becton Dickinson) was used to determine cells undergoing NHEJ (eGFP and BFP negative population) and HDR (eGFP negative, BFP positive). Data analysis was performed using Flowlogic (version 8.7). Graphpad PRISM (version 9.3.1) was used for statistical analysis and preparing graphs.
The percentage of HDR relative to total gene editing in a given cell population (hereafter named Relative HDR (% of edited cells) was calculated by dividing the absolute HDR population by the sum of gene-edited cells found in the BFP+ and eGFP- gates. Absolute HDR (% of all cells) and Absolute NHEJ (% of all cells) were analyzed where appropriate. The gating strategy is given in S1 Fig in S1 File.
A general note: In flow cytometry, cells or beads pass a laser one at a time.

Setting [2] is: 72 h, HEK293T-eGFP cells, 3 days of incubation, MTT, read-out: IC50.
The mark [3] stands for this setting: HEK293T-eGFP cells, 3 days of incubation, MTT, read-out: IC50.

Like-named read-outs stand apart in the source and are kept apart here.

Take `O=C(NC1CCNCC1)c1[nH]ncc1NC(=O)c1c(Cl)cccc1Cl` [AT7519]: in the assay on HEK293T-eGFP cells (setting [2]), the concentration for half-maximal inhibition (IC50) (commonly the midpoint of a concentration-inhibition curve) was 438 nM.

With `CCN1CCN(Cc2ccc(Nc3ncc(F)c(-c4cc(F)c5nc(C)n(C(C)C)c5c4)n3)nc2)CC1` [Abemaciclib], in the assay on HEK293T-eGFP cells (setting [2]), the concentration for half-maximal inhibition (IC50) was determined as 1070 nM.

Consider `C=CCn1c(=O)c2cnc(Nc3ccc(N4CCN(C)CC4)cc3)nc2n1-c1cccc(C(C)(C)O)n1` [Adavosertib], for which the half-inhibitory concentration (IC50) in the assay with HEK293T-eGFP cells (setting [2]) came to 227 nM. On the same count and under the same terms, with `CNc1nc(-c2nc3ccc(N4CCN(C)CC4)cc3n2Cc2ccccc2)cn2c(C)nnc12` [BI 894999] the figure was 582 nM. On to `O=C(/C=C/c1cccc(S(=O)(=O)Nc2ccccc2)c1)NO` [Belinostat], for which the 50% inhibitory concentration (IC50) in the assay with HEK293T-eGFP cells (setting [2]) is 1100 nM. In addition, in assay [1], the “preferential activation of HDR over NHEJ in hit validation” value is on record as “strong dose-dependent preferential activation of HDR over NHEJ”; the “effect on the NHEJ and HDR outcomes” value was “increased both NHEJ and HDR”. With `CNCc1ccc(-c2cc(-c3nc(-c4ccc(S(=O)(=O)C(C)C)cc4)cnc3N)on2)cc1` [Berzosertib], the 50% inhibitory concentration (IC50) with HEK293T-eGFP cells (setting [2]) was 335 nM. Still for that read-out and setting: then `Cc1sc2c(c1C)C(c1ccc(Cl)cc1)=N[C@@H](CC(=O)Nc1ccc(O)cc1)c1nnc(C)n1-2` [Birabresib], with 540 nM. Take `Cc1sc2c(c1C)C(c1ccc(Cl)cc1)=N[C@@H](CC(N)=O)c1nnc(C)n1-2` [CPI-203]: in the assay with HEK293T-eGFP cells (setting [3]), the IC50 came out at 651 nM. The same measure, in the same setting: then `CC(C)c1c(-c2ccccc2)[nH]c2c(C#N)cnn2c1=O` [CPI-455], with over 10000 nM. As to `CC[C@H](Nc1nc(NCc2cnc(C)cc2C)c2ncn(C(C)C)c2n1)[C@@H](C)O` [CYC065], the IC50 in the assay on HEK293T-eGFP cells (setting [2]) was 255 nM.

As for `C[C@@H]1COCCN1c1cc(C2([S@](C)(=N)=O)CC2)nc(-c2cc[nH]c3nccc2-3)n1` [Ceralasertib], in the assay on HEK293T-eGFP cells (setting [2]), the IC50 was 1840 nM. Take `Nc1ccccc1NC(=O)c1ccc(CNC(=O)OCc2cccnc2)cc1` [Entinostat]: in the assay on HEK293T-eGFP cells (setting [2]), the half-maximal inhibitory concentration (IC50) was 3560 nM. In addition, the “effect on relative HDR in the compound screen” value (shortened to “effect on relative HDR”) in assay [1] was “did not show the same effect”.

As for `Nc1cc(F)ccc1NC(=O)c1ccc(CNC(=O)/C=C/c2cccnc2)cc1` [Epidaza], the IC50 in the assay with HEK293T-eGFP cells (setting [2]) was over 10000 nM. The “effect on relative HDR” value in assay [1] is recorded as “did not show an effect towards improving HDR”. Consider `C[C@@H](Oc1cc(-n2cnc3ccc(CN4CCN(C)CC4)cc32)sc1C(N)=O)c1ccccc1C(F)(F)F` [GSK461364], for which, in the assay with HEK293T-eGFP cells (setting [2]), the IC50 stood at 8.35 nM. Consider `CCn1cc(-c2ccnc3[nH]c(-c4cccc(CN(C)C)c4)cc23)c(-c2ccc(NC(=O)N(C)C)cc2)n1` [GSK1070916], for which the IC50 in the assay on HEK293T-eGFP cells (setting [2]) was determined as 1390 nM. Also, in assay [1], the “effect on relative HDR” value was “did not show an effect toward relative HDR activation”.

Consider `Cc1ncc(Cl)cc1NCc1ccc(C(=O)N[C@@H](CC2CCCC2)C(=O)NC2CC2)s1` [GSK2830371], for which, in the assay with HEK293T-eGFP cells (setting [2]), the half-inhibitory concentration (IC50) is over 10000 nM. As to `CCn1cc(-c2cccc(C(F)(F)F)c2)c2sc(C(=N)NC3CCS(=O)(=O)CC3)cc2c1=O` [I-BRD9], the concentration for half-maximal inhibition (IC50) in the assay with HEK293T-eGFP cells (setting [3]) came out at 8940 nM.

On to `Cc1sc2c(c1C)C(c1ccc(Cl)cc1)=N[C@@H](CC(=O)O)c1nnc(C)n1-2` [JQ-1 COOH], for which the IC50 in the assay on HEK293T-eGFP cells (setting [3]) was over 10000 nM. As for `O=c1cc(-c2cccc3c2Sc2ccccc2S3)oc(N2CCOCC2)c1` [KU-55933], in the assay with HEK293T-eGFP cells (setting [2]), the IC50 is over 10000 nM.

With `C[C@@H]1CN(CC(=O)Nc2ccc3c(c2)Cc2cccc(-c4cc(=O)cc(N5CCOCC5)o4)c2S3)C[C@H](C)O1` [KU-60019], in the assay with HEK293T-eGFP cells (setting [2]), the IC50 was over 10000 nM.

On to `Cc1cc(C)cc(C(=O)NOCCCCCC(=O)NO)c1` [LMK-235], for which the half-maximal inhibitory concentration (IC50) with HEK293T-eGFP cells (setting [3]) came to 1790 nM. Turning to `O=C(c1cc(Cc2n[nH]c(=O)c3ccccc23)ccc1F)N1CCN(C(=O)C2CC2)CC1` [Olaparib], the half-inhibitory concentration (IC50) in the assay with HEK293T-eGFP cells (setting [2]) is over 10000 nM. Turning to `COc1ccc(Cn2ccc3ccc(C(=O)NO)cc32)cc1` [PCI-34051], the IC50 in the assay on HEK293T-eGFP cells (setting [3]) was over 10000 nM. For `CC(=O)O[C@H]1C(=O)[C@@]2(C)[C@H]([C@H](OC(=O)c3ccccc3)[C@]3(O)C[C@H](OC(=O)[C@H](O)[C@@H](NC(=O)c4ccccc4)c4ccccc4)C(C)=C1C3(C)C)[C@]1(OC(C)=O)CO[C@@H]1C[C@@H]2O` [Paclitaxel], the half-maximal inhibitory concentration (IC50) in the assay with HEK293T-eGFP cells (setting [2]) was 3.12 nM. The same measure, in the same setting: with `C[C@]12CCCN1CC1=NNC(=O)c3cc(F)cc4[nH]c2c1c34` [Pamiparib] the figure was over 10000 nM. For the compound `Cc1[nH]c2ccccc2c1CCNCc1ccc(/C=C/C(=O)NO)cc1` [Panobinostat], the half-maximal inhibitory concentration (IC50) in the assay on HEK293T-eGFP cells (setting [2]) is 30.6 nM. Further, in assay [1], the “effect on relative HDR” value is “did not show the same effect”. Take `NS(=O)(=O)OC[C@@H]1C[C@@H](n2ccc3c(N[C@H]4CCc5ccccc54)ncnc32)C[C@@H]1O` [Pevonedistat]: the IC50 with HEK293T-eGFP cells (setting [2]) is 4740 nM. Still for that read-out and setting: with `COc1cccc(OCCCN)c1-c1cc(Nc2cnc(C#N)cn2)n[nH]1` [Prexasertib] the figure was 5.33 nM; with `CN(C)C(=O)c1cc2cnc(Nc3ccc(N4CCNCC4)cn3)nc2n1C1CCCC1` [Ribociclib], over 10000 nM. As to `C/C=C1\NC(=O)[C@H]2CSSCC/C=C/[C@H](CC(=O)N[C@H](C(C)C)C(=O)N2)OC(=O)[C@H](C(C)C)NC1=O` [Romidepsin], in the assay with HEK293T-eGFP cells (72 h), the 50% inhibitory concentration (IC50) amounted to 16.4 nM. Also, the “effect on relative HDR” value in assay [1] is “strongly inhibited HDR”. For the compound `CNCc1ccc(-c2[nH]c3cc(F)cc4c3c2CCNC4=O)cc1` [Rucaparib], in the assay with HEK293T-eGFP cells (setting [2]), the concentration for half-maximal inhibition (IC50) was over 10000 nM. In addition, in assay [1], the “preferential activation of HDR over NHEJ in hit validation” value is recorded as “strong dose-dependent preferential activation of HDR over NHEJ”; the “effect on the NHEJ and HDR outcomes” value was “inhibited NHEJ and improved HDR”. `C[C@@H](NC(=O)c1ncnc(N)c1Cl)c1ncc(C(=O)Nc2cc(C(F)(F)F)c(Cl)cn2)s1` [TAK-580]: in the assay with HEK293T-eGFP cells (setting [2]), the 50% inhibitory concentration (IC50) is over 10000 nM. Take `CN(C)C/C=C/C(=O)Nc1ccc(C(=O)Nc2cccc(Nc3ncc(Cl)c(-c4c[nH]c5ccccc45)n3)c2)cc1` [THZ1]: the IC50 in the assay on HEK293T-eGFP cells (setting [3]) was determined as 37.1 nM. In the case of `CN(C)C/C=C/C(=O)Nc1ccc(C(=O)N2CCC[C@@H](Nc3ncc(Cl)c(-c4c[nH]c5ccccc45)n3)C2)cc1` [THZ531], the half-maximal inhibitory concentration (IC50) in the assay with HEK293T-eGFP cells (setting [2]) was found to be 352 nM.

With `CC[C@@H]1C(=O)N(C)c2cnc(Nc3ccc(C(=O)N[C@H]4CC[C@H](N5CCN(CC6CC6)CC5)CC4)cc3OC)nc2N1C(C)C` [Volasertib], the IC50 in the assay on HEK293T-eGFP cells (setting [2]) worked out at 24.5 nM. Same read-out and setting: then `Oc1nc(-c2ccc(C(F)(F)F)cc2)nc2c1CSCC2` [XAV-939], with over 10000 nM. Karonudib: in the assay on HEK293T-eGFP cells (setting [3]), the 50% inhibitory concentration (IC50) is 450 nM.
